In patent publication US9943500B2, “Methods of treating topical microbial infections” (LUODA PHARMA PTY LIMITED, priority 2013, dated 2018):

Columns and labels:
[1] = tested on: Staphylococcus aureus; experiment: Skin wound infection model in mice, topical ointment (Example 5); type: in vivo; settings: LP1369 ointment 20 mg/g, 11 treatments
Text: Preliminary studies prior to the conduct to the current study established a new method of skin infection arising from a detailed study of the models mentioned above. Briefly, study mice are anaesthetised, a patch of dorsal skin is clipped to reveal the skin and a circular area of skin is removed with a hand held punch, leaving a wound on the dorsum with a central cavity. The wound is infected with a known number of the challenge organism. Approximately four to six hours after infection, the wound is either treated topically with a vehicle formulation or an active formulation. The infected skin wound is retreated every 12 hours for a total of 11 treatments. Mice are humanely euthanased, the area of the original infected wound is dissected and removed and its bacterial content quantified by standard microbiologic tests. In this way, the change in bacterial concentration due to treatment with the active formulation can be readily determined by examining the reduction in bacterial burden compared with the vehicle control.
Fresh cultures of bacteria were grown on Sheep Blood Agar at 37° C. for 16-18 hours. […] The density of the suspension was checked by measuring absorbance at 600 nm, using a spectrophotometer with saline as a blank, to confirm the target density at a reading of approximately 0.100, consistent with a bacterial density of 2.5×10^8 CFU/ml. […]

[2] = tested on: ATCC 49775 reference strain; experiment: Microdilution time-kill assay (optical density); settings: 48 hour period; one, four and eight times the MIC
Description: Time-kill assays were performed according to the M26-A guidelines of the CLSI, with modifications. The test compounds and ampicillin were serial diluted in CAMHB across the rows of a 96 well plate and a bacterial suspension was prepared and added in the same manner as the MIC testing. The 96 well plates were then incubated at 37° C. for 48 hours being removed at specific time points and OD for the positive control wells as well as one, four and eight times the MIC of the compound specific to the strain being tested were assessed using a spectrophotometer at a wavelength of 600 nm. The time points assessed were 0, 1, 2, 4, 8, 12, 24 and 48 hours after the addition of the bacterial suspension to the wells. Each test compound was tested in triplicate while ampicillin was tested in duplicate and this test was independently repeated. […] One strain from each of the categories of Staphylococcus in the isolate collection (methicillin-sensitive, methicillin resistant and coagulase negative) were selected as well as the ATCC reference strain for comparison. These strains were strains MSS 1, MSS 11, MRSA 9 and the ATCC 49775 reference strain.

[3] = tested on: MRSA 9; experiment: Macrodilution time-kill assay (viable counts); settings: 24 hours; all concentrations tested
Description: Due to the detection limit of the OD measurements, the time-kill assays were also performed in macrodilution. In 15 mL tubes, 9 mL volumes of the test compounds in CAMHB were prepared at one, four and eight times the MIC concentration and 9 mL volumes of ampicillin were prepared in CAMHB at one and four times the MIC. 1 mL of a 4 to 5×10^6 bacterial suspension (as prepared for MIC testing) was added to each of the tubes as well as a growth control tube containing only 9 mL of CAMHB. These tubes were incubated at 37° C. in an orbital shaker rotating at 100 rpm for 24 hours. At 0, 1, 4, 8, 12 and 24 hours after addition of the bacteria, 100 μL samples were removed from each tube and serial diluted in 9.1 g/L saline solution. The dilutions were then plated in duplicate onto plate count agar and incubated for 24 hours at 37° C. After incubation, viable counts were obtained from the number of colonies visible on the agar and these were used to calculate the number of CFU/mL at each time point. For the macrodilution time-kill analysis, only the ATCC 49775 reference strain and MRSA 9 were assessed in order to further investigate the antibacterial activity against methicillin-resistant strains. These macrodilution time-kill assays were independently repeated and bactericidal activity was defined as a ≥3 log decrease in the number of CFU/mL.

[4] = tested on: methicillin-sensitive and methicillin-resistant strains of Staphylococcus; experiment: Minimum bactericidal concentration determination, Staphylococcus isolates (Example 1)
Description: Following determination of the MIC using the 96 well MIC plate, a variation of the drop plate method was used to determine minimum bactericidal concentration (MBC) for each of the test compounds. These were analysed using samples taken from the MIC plate following incubation. […] Each concentration was pipetted in duplicate with duplicates being pipetted on an inner ring of drops. The plates were incubated at 37° C. overnight and assessed the following day for growth. The MBC was defined as the concentration at which 99.9% of colonies were eradicated, which was visually assessed by a lack of growth on the agar where the drop was placed.

[5] = tested on: methicillin sensitive and methicillin-resistant staphylococci; experiment: Minimum inhibitory concentration assay, 42 Staphylococcus isolates (Example 1); type: cell-based
Description: Forty-two isolates of Staphylococcus of varying species and strain type were collected from isolate collections. Biochemical testing including coagulase, latex agglutination testing for protein A, Vogues-Proskauer tests and resistance to polymyxin B were used to identify the species of Staphylococcus. All isolates were also screened for resistance to various antimicrobials commonly used for the treatment of skin infections. This was performed using the disk diffusion method and resistance standards as outlined by the CLSI. The following antimicrobials were used: amoxicillin-clavulanic acid (30 μg), cephalothin (30 μg), clindamycin (2 μg), enrofloxacin (5 μg), erythromycin (15 μg), gentamicin (10 μg), imipenem (10 μg), oxacillin (1 μg), penicillin G (10 units), tetracycline (30 μg), 1:19 trimethoprim-sulfamethoxazole (25 μg) and vancomycin (30 μg).
Minimum inhibitory concentration tests were performed according to CLSI Standards (CLSI 2012). 90 μL of one of the test compound solutions, or ampicillin, was added to the end column of a 96 well plate that contained 90 μL of CAMHB in each well. The solutions were then serially diluted across the row, leaving 2 columns for positive and negative controls (FIG. 2). A bacterial suspension was prepared by adding fresh colonies obtained from an overnight culture on Sheep Blood Agar (SBA) to a 9.1 g/L saline solution. This suspension was adjusted to a concentration of between 4×10^8 and 5×10^8 CFU/mL. […] 1 mL of this suspension was added to 9 mL of saline before being added to all wells, excluding the negative control wells, in 10 μL volumes giving a final concentration of between 4×10^5 and 5×10^5 CFU/mL in each well. The tests were then incubated for 24 hours at 37° C. and then assessed both visually and using OD readings from a microplate reader at a wavelength of 600 nm. These tests were performed in duplicate but repeated if discrepancies were observed.
The minimum inhibitory concentration (MIC) was determined to be the lowest concentration of antibiotic that prevented growth of bacteria both visually and using OD readings. Direct statistical comparisons between the test compounds and ampicillin could not be performed in light of confidential information restrictions, such as restrictions on disclosure of information relating to the compound structure, such as molecular weight. Instead, MIC values were collated and used to determine the lowest concentration of each compound that was effective against 50% and 90% of isolates, referred to as the MIC50 and MIC90 respectively. These values as well as the range of MIC values were then used for direct comparisons between test compounds and for general comparisons with ampicillin.

## CC[C@@H](C(=O)[C@@H](C)[C@@H](O)[C@H](C)CCc1ccc(C)c(O)c1C(=O)O)[C@H]1O[C@](CC)([C@H]2CC[C@](O)(CC)[C@H](C)O2)C[C@@H]1C [LP 1369, Lasalocid]
[1]
  decrease in bacterial load compared to vehicle control mice: statistically significant
[1]; every 12 hours, versus vehicle
  reduction of the bacterial population: greater than 99%
[2]
  growth (optical density) compared to growth control: prevented the growth
[3]
  decrease in the number of viable bacteria: < 3 log10
[4]; lower concentrations
  bactericidal activity (MBC testing): some bactericidal activity in lower concentrations
[4]; methicillin-sensitive isolates
  MBC50 rank among test compounds: lowest MBC50 values
[4]; methicillin-sensitive versus methicillin-resistant strains
  strain type for which bactericidal activity was more consistent: more consistently for methicillin-sensitive strains
[5]
  MIC50 and MIC90 values compared with ampicillin: considerably lower than ampicillin
